Measurements reported in PubChem BioAssay (NCI).
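Growth conditions: 96-well plates. Treatment: test compound, 48 hours, 5 concentrations. Analysis: linear interpolation between bracketing concentrations; unreached endpoints set to highest concentration. TGI is the concentration that stops growth completely.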

Key:
Test in all cases: inhibition of tumour cell growth, NCI panel, 48 h
LOX IMVI melanoma = test system: LOX IMVI melanoma
NCI-H226 lung = test system: NCI-H226 lung
HT29 colon = test system: HT29 colon
K-562 leukemia = test system: K-562 leukemia
SK-MEL-28 melanoma = test system: SK-MEL-28 melanoma
SK-MEL-5 melanoma = test system: SK-MEL-5 melanoma
PC-3 prostate = test system: PC-3 prostate
EKVX NSCLC = test system: EKVX NSCLC
NCI-H460 lung = test system: NCI-H460 lung
HL-60(TB) leukemia = test system: HL-60(TB) leukemia
TK-10 renal = test system: TK-10 renal
OVCAR-8 ovarian = test system: OVCAR-8 ovarian
HCT-15 colon = test system: HCT-15 colon
SF-268 CNS = test system: SF-268 CNS
T-47D breast = test system: T-47D breast
UACC-62 melanoma = test system: UACC-62 melanoma
HOP-62 NSCLC = test system: HOP-62 NSCLC
SF-295 CNS = test system: SF-295 CNS
NCI-H522 lung = test system: NCI-H522 lung
A549 NSCLC = test system: A549 NSCLC
SNB-19 CNS = test system: SNB-19 CNS
HCT-116 colon = test system: HCT-116 colon
BT-549 breast = test system: BT-549 breast
M14 melanoma = test system: M14 melanoma
SF-539 CNS = test system: SF-539 CNS
NCI-H23 lung = test system: NCI-H23 lung
MCF7 breast = test system: MCF7 breast
MALME-3M melanoma = test system: MALME-3M melanoma
IGROV1 ovarian = test system: IGROV1 ovarian
RXF 393 renal = test system: RXF 393 renal
SN12C renal = test system: SN12C renal
HOP-92 NSCLC = test system: HOP-92 NSCLC
A498 renal = test system: A498 renal
HCC-2998 colon = test system: HCC-2998 colon
SR leukemia = test system: SR leukemia
MDA-MB-231 breast = test system: MDA-MB-231 breast
MDA-N = test system: MDA-N
UO-31 renal = test system: UO-31 renal
HS 578T breast = test system: HS 578T breast
OVCAR-4 ovarian = test system: OVCAR-4 ovarian
OVCAR-5 ovarian = test system: OVCAR-5 ovarian
DU-145 prostate = test system: DU-145 prostate
KM12 colon = test system: KM12 colon
SK-MEL-2 melanoma = test system: SK-MEL-2 melanoma
COLO 205 colon = test system: COLO 205 colon
SW-620 colon = test system: SW-620 colon
CCRF-CEM leukemia = test system: CCRF-CEM leukemia
CAKI-1 renal = test system: CAKI-1 renal
NCI/ADR-RES ovarian = test system: NCI/ADR-RES ovarian
MDA-MB-435 = test system: MDA-MB-435
U251 CNS = test system: U251 CNS
UACC-257 melanoma = test system: UACC-257 melanoma
786-0 renal = test system: 786-0 renal
ACHN renal = test system: ACHN renal
SK-OV-3 ovarian = test system: SK-OV-3 ovarian
MOLT-4 leukemia = test system: MOLT-4 leukemia
OVCAR-3 ovarian = test system: OVCAR-3 ovarian

For CCOC(=S)SC/C(=N\OC(C)(C)OC)c1ccccc1, the TGI (LOX IMVI melanoma) was 31.2 µM, the TGI (NCI-H226 lung) was > 100 µM and the TGI (HT29 colon) was 58.3 µM. The TGI (K-562 leukemia) was 56 µM, the TGI (SK-MEL-28 melanoma) was > 100 µM and the TGI (SK-MEL-5 melanoma) was > 100 µM. The TGI (PC-3 prostate) was > 100 µM, the TGI (EKVX NSCLC) was > 100 µM and the TGI (NCI-H460 lung) was > 100 µM. The TGI (HL-60(TB) leukemia) was 54.7 µM, the TGI (TK-10 renal) was > 100 µM and the TGI (OVCAR-8 ovarian) was > 100 µM. The TGI (HCT-15 colon) was > 100 µM, the TGI (SF-268 CNS) was > 100 µM and the TGI (T-47D breast) was 63.1 µM. For the same compound, the TGI (UACC-62 melanoma) was > 100 µM, the TGI (HOP-62 NSCLC) was > 100 µM and the TGI (SF-295 CNS) was > 100 µM. For the same compound, the TGI (NCI-H522 lung) was 59.1 µM, the TGI (A549 NSCLC) was > 100 µM and the TGI (SNB-19 CNS) was > 100 µM. The TGI (HCT-116 colon) was 77.5 µM, the TGI (BT-549 breast) was > 100 µM and the TGI (M14 melanoma) was > 100 µM. The TGI (SF-539 CNS) was > 100 µM, the TGI (NCI-H23 lung) was > 100 µM and the TGI (MCF7 breast) was > 100 µM. The TGI (MALME-3M melanoma) was 75.9 µM, the TGI (IGROV1 ovarian) was > 100 µM and the TGI (RXF 393 renal) was 70 µM. For the same compound, the TGI (SN12C renal) was > 100 µM, the TGI (HOP-92 NSCLC) was 63.8 µM and the TGI (A498 renal) was > 100 µM. For the same compound, the TGI (HCC-2998 colon) was 61.8 µM, the TGI (SR leukemia) was 35.9 µM and the TGI (MDA-MB-231 breast) was > 100 µM. For the same compound, the TGI (MDA-N) was > 100 µM, the TGI (UO-31 renal) was 95.8 µM and the TGI (HS 578T breast) was > 100 µM. For the same compound, the TGI (OVCAR-4 ovarian) was > 100 µM, the TGI (OVCAR-5 ovarian) was > 100 µM and the TGI (DU-145 prostate) was > 100 µM. For the same compound, the TGI (KM12 colon) was > 100 µM, the TGI (SK-MEL-2 melanoma) was 43.9 µM and the TGI (COLO 205 colon) was > 100 µM. For the same compound, the TGI (SW-620 colon) was > 100 µM, the TGI (CCRF-CEM leukemia) was 44.5 µM and the TGI (CAKI-1 renal) was > 100 µM. For the same compound, the TGI (NCI/ADR-RES ovarian) was > 100 µM, the TGI (MDA-MB-435) was 65.7 µM and the TGI (U251 CNS) was > 100 µM. For the same compound, the TGI (UACC-257 melanoma) was > 100 µM, the TGI (786-0 renal) was > 100 µM and the TGI (ACHN renal) was > 100 µM. The TGI (SK-OV-3 ovarian) was > 100 µM, the TGI (MOLT-4 leukemia) was 65.2 µM and the TGI (OVCAR-3 ovarian) was > 100 µM.
